Assay results reported in PubChem BioAssay (NCI).
Several values for one entry are separate records, joined by “and”; a condition that tells them apart may be missing. Equal values may be shown once.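 1) Cells in 96-well plates. 2) Compound, 48 h, 5 concentrations. 3) Linear interpolation between surrounding doses. 4) Unreached endpoint = highest concentration. GI50 = concentration required for 50% inhibition of growth. Definition used: TGI = concentration required for complete inhibition of growth.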

Columns and labels:
Assay in all cases: NCI tumour cell line growth inhibition, 48 h
[1] = test system: DMS 114 small cell lung
[2] = test system: DMS 273 small cell lung
[3] = test system: KM20L2 colon
[4] = test system: RXF-631 renal
[5] = test system: M19-MEL melanoma
[6] = test system: HOP-18 NSCLC
[7] = test system: XF 498 CNS
[8] = test system: T-47D breast
[9] = test system: MDA-N
[10] = test system: P388 leukemia
[11] = test system: SN12K1 renal

| SMILES | TGI [1] | TGI [2] [µM] | TGI [3] [µM] | TGI [4] [µM] | TGI [5] | TGI [6] [µM] | TGI [7] | GI50 [8] | TGI [8] | GI50 [9] [µM] | TGI [9] | TGI [10] [µM] | TGI [11] [µM] | GI50 [1] [µM] | GI50 [2] [µM] | GI50 [3] [µM] | GI50 [4] [µM] | GI50 [5] [µM] | GI50 [6] [µM] | GI50 [7] [µM] |
| --- | --- | --- | --- | --- | --- | --- | --- | --- | --- | --- | --- | --- | --- | --- | --- | --- | --- | --- | --- | --- |
| CC1OC(n2cc(F)c(=O)[nH]c2=O)C=CC1O (configuration not stated) | > 100 µM | > 100 | > 100 | > 100 | > 100 µM | > 100 | > 100 µM | – | – | – | – | – | – | – | – | – | – | – | – | – |
| CCOP(=O)(Cc1ccc(CP(=O)(OCC)OCC)n1C)OCC | > 100 µM | > 100 | > 100 | > 100 | > 100 µM | > 100 | – | – | – | – | – | – | – | – | – | – | – | – | – | – |
| CC1=Nc2ccccc2C1C(Cc1ccccc1N)c1c(C)[nH]c2ccccc12 (configuration not stated) | 33.5 µM | – | 28.2 | 44.4 | 33.1 µM | 24.8 | 32.5 µM | – | – | – | – | – | – | – | – | – | – | – | – | – |
| O=C1c2ccccc2C2(Br)C(=O)c3ccccc3C12 (configuration not stated) | > 100 µM | 42.5 | > 100 | 28.1 | > 100 µM | > 100 | – | – | – | – | – | – | – | – | – | – | – | – | – | – |
| O=[N+]([O-])c1nccn1CC(O)c1ccc(F)cc1 (configuration not stated) | > 100 µM | > 100 | > 100 | > 100 | > 100 µM | > 100 | > 100 µM | – | – | – | – | – | – | – | – | – | – | – | – | – |
| O=C(O)CNc1cc(-c2ccccc2)nc(NCC(=O)O)n1 | > 100 µM | > 100 | > 100 | > 100 | > 100 µM | > 100 | > 100 µM | – | – | – | – | – | – | – | – | – | – | – | – | – |
| CNC(=S)NC1CCCCC1NC(=S)NC (configuration not stated) | > 100 µM | > 100 | > 100 | > 100 | > 100 µM | > 100 | > 100 µM | – | – | – | – | – | – | – | – | – | – | – | – | – |
| COC(=O)C(C(=O)C(=O)Nc1cccc(OC)c1)c1cnc2ccccc2n1 (configuration not stated) | > 100 µM | > 100 | > 100 | > 100 | – | > 100 | > 100 µM | – | – | – | – | – | – | – | – | – | – | – | – | – |
| O=C(Nc1nc2ncn(CCI)c2c(=O)[nH]1)c1ccccc1 | – | > 100 | > 100 | > 100 | > 100 µM | > 100 | > 61.2 µM | – | – | – | – | – | – | – | – | – | – | – | – | – |
| O=S(O)CCCCSSCC(O)C(O)CSSCCCCS(=O)O (configuration not stated) | 34 µM and 56.6 µM | > 100 | > 100 | > 100 | 15.6 µM and 29.7 µM | > 100 | 35.9 µM and 26 µM | – | – | – | – | – | – | – | – | – | – | – | – | – |
| O=c1n(CC2CO2)c(=O)n(CC2CO2)c(=O)n1CC1CO1 (configuration not stated) | 70.9 µM | 51.4 | 201 | – | 113 µM | 202 | – | 7.66 µM and 10 µM | 70.3 µM and > 100 µM | 26.5 | 72 µM and 82.6 µM | 122 | 174 | – | – | – | – | – | – | – |
| O=c1nc2occc2cn1C1CC(O)C(CO)O1 (configuration not stated) | > 100 µM | > 100 | > 100 | > 100 | > 100 µM | > 100 | > 100 µM | – | – | – | – | – | – | – | – | – | – | – | – | – |
| Cc1cc(Br)cc(C)c1NC(=O)C(=O)C(C(=O)c1ccc2ccccc2c1)C1OC(=O)c2ccccc21 (configuration not stated) | 41.8 µM | 86 | 38.7 | > 100 | 46.3 µM | 41.3 | 18 µM | – | – | – | – | – | – | – | – | – | – | – | – | – |
| O=S(=O)([O-])c1ccc2c(c1)-c1nc-2nc2[n-]c(nc3nc(nc4[n-]c(n1)c1ccc(S(=O)(=O)[O-])cc41)-c1cc(S(=O)(=O)[O-])ccc1-3)c1ccc(S(=O)(=O)[O-])cc21.[Cu+2].[Na+] | > 100 µM | > 100 | > 100 | > 100 | > 100 µM | > 100 | > 100 µM | 75.6 µM | > 100 µM | > 100 | > 100 µM | – | – | 31.2 | 6.07 | 2.35 | > 86.8 | 6.21 | > 100 | 68.3 |
| O=C1CN=C(C[N+](=O)[O-])c2ccccc21 | > 100 µM | > 100 | > 100 | > 100 | – | > 100 | – | – | – | – | – | – | – | – | – | – | – | – | – | – |
| O=C1OC(c2ccccc2)=N/C1=C/C=C/c1ccco1 | > 100 µM | – | > 100 | > 100 | > 100 µM | – | > 100 µM | – | – | – | – | – | – | – | – | – | – | – | – | – |
| COC(=O)C12C3C4C1C1C2C3C41C(=O)OC(C)(C)C (configuration not stated) | > 67.4 µM | > 60.5 | > 100 | > 100 | > 100 µM | > 100 | > 100 µM | – | – | – | – | – | – | – | – | – | – | – | – | – |
| C=C(CCCCC)CN1CCCC1[C@@](C)(O)CC(=O)OCC (some centres not stated) | > 100 µM | > 100 | > 100 | – | > 100 µM | > 100 | > 100 µM | – | – | – | – | – | – | – | – | – | – | – | – | – |
| O=C1c2ccccc2C(=O)C1(Cl)C1(S(=O)(=O)O)c2ccccc2-c2ccccc21 | > 100 µM | > 100 | > 100 | – | > 100 µM | > 100 | > 100 µM | – | – | – | – | – | – | – | – | – | – | – | – | – |
